Literature values as cited in patent US12383593B2, “Organic pain relief and hair growth composition” (The Tao Talit Corporation, priority 2021, dated 2025).
One block for each molecule: values may come before it.

Assays:
orofacial nociception = conditions: in comparison with S. lavandulifolia essential oil
[1] = test system: MAPKs and the NF-κB pathway; conditions: mouse peritoneal macrophages
[2] = test system: capsaicin irritancy, sprains, heat hypersensitivity and headaches

solubility in ethanol (ethanol): soluble | solubility in water and glycerin (water and glycerin): poorly soluble
Compound: CC(C)=CCCC(C)(O)C1CC=C(C)CC1 (stereo not drawn) [(−)-α-bisabolol, 6-methyl-2-(4-methylcyclohex-3-en-1-yl)-hept-5-en-2-ol]
antinociceptive effect in the pain models (orofacial nociception): stronger effect

Compound: CC1=CCC2CC1C2(C)C (stereo not drawn) [Alpha-pinene, α-pinene]
anti-inflammatory activity [1]: anti-inflammatory activity through the suppression of mitogen-activated protein kinases (MAPKs) and the nuclear factor-kappa B (NF-κB) pathway

solubility in organic solvents: very soluble | solubility in water: nearly insoluble
Compound: C=C1C2CCC(C2)C1(C)C (stereo not drawn) [Camphene]

Compound: C=C(C)[C@H]1CC=C(C)CC1 [limonene, Limonene]
action on a lymphoma cell line (lymphoma cell line; lymphoma cell line): anti-proliferative action | normal lymphocyte viability (lymphoma cell line; normal lymphocytes): without modifying normal lymphocyte viability

Compound: CC1CCC(C(C)C)C(O)C1 (stereo not drawn) [menthol, Menthol]
cold allodynia and hyperalgesia ([2]; high concentrations, topical use or intraplantar injection): generated cold allodynia and hyperalgesia | analgesic effect of topically applied menthol ([2]; low to moderate concentrations, topical): inhibit capsaicin irritancy, sprains, heat hypersensitivity and headaches

solubility in organic solvents: miscible | solubility in water: insoluble
Compound: Cc1ccc(C(C)C)cc1 [p-Cymene]
